Patent US20260053932A1, “COMPOUNDS AND METHODS FOR THE TARGETED DEGRADATION OF ANDROGEN RECEPTOR AND ASSOCIATED METHODS OF USE” (Arvinas Operations, Inc., priority 2020, published 2026)

System: androgen receptor (AR) in LNCaP and/or VCaP cells
Assay: Androgen Receptor ELISA assay (AR degradation)
Format: cell-based
Conditions: degradation of AR ELISA in LNCaP and/or VCaP cells; Table 2C; read-out: DC50 Code*
Procedure, shortened: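 VCaP cells grown ≥3 days, then treated 5 h with compound in media containing 1 nM R1881 (10× stock). Cells lysed and AR quantified by sandwich ELISA (mouse AR detection Ab, HRP anti-mouse, TMB). DC50 and Dmax derived from AR degradation.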

Structure (SMILES) | DC50 [nM]
Cc1cc(O[C@H]2C(C)(C)[C@H](NC(=O)c3ccc(N4CCC(CN(C)[C@@H]5CC[C@@H](Oc6ccc7c(c6)C(=O)N(C6CCC(=O)NC6=O)C7=O)C5)CC4)cc3)C2(C)C)cc(C)c1C#N (stereo partly drawn) [compound 161, N-((1r,3R)-3-(4-cyano-3,5-dimethylphenoxy)-2,2,4,4-tetramethylcyclobutyl)-4-(4-((((1R,3R)-3-((2-(2,6-dioxopiperidin-3-yl)-1,3-dioxoisoindolin-5-yl)oxy)cyclopentyl) (methyl)amino)methyl)piperidin-1-yl)benzamide] | < 1
Cc1cc(O[C@H]2C(C)(C)[C@H](NC(=O)c3ccc(N4CCC(CN5CCCC[C@H]5COc5ccc6c(c5)C(=O)N(C5CCC(=O)NC5=O)C6=O)CC4)cc3)C2(C)C)cc(C)c1C#N (stereo partly drawn) [compound 162, N-((1r,3S)-3-(4-cyano-3,5-dimethylphenoxy)-2,2,4,4-tetramethylcyclobutyl)-4-(4-(((2S)-2-(((2-(2,6-dioxopiperidin-3-yl)-1,3-dioxoisoindolin-5-yl)oxy)methyl)piperidin-1-yl)methyl)piperidin-1-yl)benzamide] | < 1
Cc1cc(O[C@H]2C(C)(C)[C@H](NC(=O)c3ccc(N4CC5(CC(CN(C(C)C)[C@H]6C[C@H](Oc7ccc8c(c7)C(=O)N(C7CCC(=O)NC7=O)C8=O)C6)C5)C4)nn3)C2(C)C)cc(C)c1C#N (stereo partly shown) [compound 163, N-((1r,3r)-3-(4-cyano-3,5-dimethylphenoxy)-2,2,4,4-tetramethylcyclobutyl)-6-(6-((((1r,3r)-3-((2-(2,6-dioxopiperidin-3-yl)-1,3-dioxoisoindolin-5-yl)oxy)cyclobutyl) (isopropyl)amino)methyl)-2-azaspiro[3.3]heptan-2-yl)pyridazine-3-carboxamide] | < 1
COc1cc(O[C@H]2C[C@H](N(C)CCOC3CCN(c4ccc(C(=O)N[C@H]5C(C)(C)[C@H](Oc6cc(C)c(C#N)c(C)c6)C5(C)C)cc4)CC3)C2)cc2c1C(=O)N(C1CCC(=O)NC1=O)C2=O (stereo partly shown) [compound 164, N-((1r,3r)-3-(4-cyano-3,5-dimethylphenoxy)-2,2,4,4-tetramethylcyclobutyl)-4-(4-(2-(((1r,3r)-3-((2-(2,6-dioxopiperidin-3-yl)-7-methoxy-1,3-dioxoisoindolin-5-yl)oxy)cyclobutyl) (methyl)amino)ethoxy)piperidin-1-yl)benzamide] | < 1
Cc1cc(O[C@H]2C(C)(C)[C@H](NC(=O)c3ccc(N4CCC(CN(C)[C@@H]5CC[C@H](Oc6ccc7c(c6)C(=O)N(C6CCC(=O)NC6=O)C7=O)C5)CC4)cc3)C2(C)C)cc(C)c1C#N (stereo partly drawn) [compound 166, N-((1r,3R)-3-(4-cyano-3,5-dimethylphenoxy)-2,2,4,4-tetramethylcyclobutyl)-4-(4-((((1R,3S)-3-((2-(2,6-dioxopiperidin-3-yl)-1,3-dioxoisoindolin-5-yl)oxy)cyclopentyl) (methyl)amino)methyl)piperidin-1-yl)benzamide] | < 1
Cc1cc(O[C@H]2C(C)(C)[C@H](NC(=O)c3ccc(N4CCO[C@H](CN5CCN(c6ccc7c(c6)C(=O)N(C6CCC(=O)NC6=O)C7=O)CC5)C4)cc3)C2(C)C)cc(C)c1C#N (stereo partly drawn) [compound 167, N-((1r,3R)-3-(4-cyano-3,5-dimethylphenoxy)-2,2,4,4-tetramethylcyclobutyl)-4-((2R)-2-((4-(2-(2,6-dioxopiperidin-3-yl)-1,3-dioxoisoindolin-5-yl)piperazin-1-yl)methyl)morpholino) benzamide] | < 1
CCN(CC1CCN(c2ccc(C(=O)N[C@H]3C(C)(C)[C@H](Oc4cc(C)c(C#N)c(C)c4)C3(C)C)cc2)CC1)[C@H]1C[C@H](Oc2ccc3c(c2)C(=O)N(C2CCC(=O)NC2=O)C3=O)C1 (stereo partly shown) [compound 168, N-((1r,3r)-3-(4-cyano-3,5-dimethylphenoxy)-2,2,4,4-tetramethylcyclobutyl)-4-(4-((((1r,3r)-3-((2-(2,6-dioxopiperidin-3-yl)-1,3-dioxoisoindolin-5-yl)oxy)cyclobutyl) (ethyl)amino)methyl)piperidin-1-yl) benzamide] | < 1
